# Test results reported in ChEMBL document CHEMBL5634137, “2,4-Diacetylphloroglucinol (DAPG) derivatives rapidly eradicate methicillin-resistant staphylococcus aureus without resistance development by disrupting membrane” (Eur J Med Chem, 2023).
# Calls of active or inactive are those of the source. No cut-off for these calls is given here.
# Assays:
# Escherichia coli = test: Antibacterial activity against Escherichia coli ATCC 11775 assessed as inhibition of bacterial growth incubated for 24 hrs by broth dilution method; type: functional
# Staphylococcus aureus [1] = test: Antibacterial activity against methicillin-resistant Staphylococcus aureus ATCC 4330 assessed as inhibition of bacterial growth incubated for 24 hrs by broth dilution method; type: functional
# Staphylococcus aureus [2] = test: Selectivity index, ratio of MBC for bactericidal against methicillin-resistant Staphylococcus aureus ATCC 3392 to MIC for antibacterial activity against methicillin-resistant Staphylococcus aureus ATCC 3392; type: functional
# Staphylococcus aureus [3] = test: Bactericidal activity against methicillin-resistant Staphylococcus aureus ATCC 3392 assessed as inhibition of bacterial growth incubated for 24 hrs by broth dilution method; type: functional
# Staphylococcus aureus [4] = test: Selectivity index, ratio of MBC for bactericidal against methicillin-resistant Staphylococcus aureus ATCC 4330 to MIC for antibacterial activity against methicillin-resistant Staphylococcus aureus ATCC 4330; type: functional
# [5] = Cytotoxicity against mouse RAW264.7 cells assessed as survival rate incubated for 24 hrs by MTT assay; type: toxicity, cell-based; parameters: concentration or dose not given beside the values; settings: read-out: Survival
# Staphylococcus aureus [6] = test: Antibacterial activity against Methicillin-resistant Staphylococcus aureus USA300 assessed as inhibition of bacterial growth incubated for 24 hrs by broth dilution method; type: functional
# [7] = Cytotoxicity against human L02 cells assessed as survival rate incubated for 24 hrs by MTT assay; type: toxicity, cell-based; parameters: concentration or dose not given beside the values; settings: read-out: Survival
# Klebsiella pneumoniae = test: Antibacterial activity against Klebsiella pneumoniae […] assessed as inhibition of bacterial growth incubated for 24 hrs by broth dilution method; type: functional
# Staphylococcus aureus [8] = test: Antibacterial activity against methicillin-resistant Staphylococcus aureus ATCC 3392 assessed as inhibition of bacterial growth incubated for 24 hrs by broth dilution method; type: functional
# Pseudomonas aeruginosa = test: Antibacterial activity against Pseudomonas aeruginosa […] assessed as inhibition of bacterial growth incubated for 24 hrs by broth dilution method; type: functional
# Staphylococcus aureus [9] = test: Bactericidal against methicillin-resistant Staphylococcus aureus ATCC 4330 assessed as inhibition of bacterial growth incubated for 24 hrs by broth dilution method; type: functional
# Staphylococcus aureus [10] = test: Antibacterial activity against Methicillin-resistant Staphylococcus aureus USA300 infected in mouse skin infection model assessed as reduction in number of bacteria at 10 mg/kg, sc administered every 12 hrs for 3 days; type: functional
# Staphylococcus aureus [11] = test: Synergistic antibacterial activity against Methicillin-resistant Staphylococcus aureus USA300 assessed as amoxicillin MIC incubated for 24 hrs by checkboard method (reference value: 8 microg/ml); type: functional
# Cell membrane [12] = test: Induction of cell membrane damage in Staphylococcus aureus USA300 assessed as intracellular ATP leakage at 1 to 8 times MIC by confocal laser scanning microscopic analysis; type: cell membranes
# Cell membrane [13] = test: Induction of inner membrane permeabilization in Staphylococcus aureus USA300 assessed as increase in fluorescence intensity incubated for 90 mins by SYTOX staining based analysis; type: cell membranes
# Staphylococcus aureus [14] = test: Induction of morphological changes in Staphylococcus aureus USA300 assessed as appearance of wrinkled cell surface at 2 to 4 times MIC by SEM analysis; type: functional, organism-based
# Staphylococcus aureus [15] = test: Antibiofilm activity against Methicillin-resistant Staphylococcus aureus USA300 assessed as biofilm eradication at 32 times MIC by crystal violet staining based assay; type: functional
# Staphylococcus aureus [16] = test: Inhibition of staphyloxanthin biosynthesis in Methicillin-resistant Staphylococcus aureus ATCC 3392 assessed as reduction in Staphyloxanthin formation at 0.125 to 0.625 times MIC by nanodrop spectrophotometer analysis; type: functional, organism-based
# Staphylococcus aureus [17] = test: Antibiofilm activity against Methicillin-resistant Staphylococcus aureus USA300 assessed as inhibition of biofilm formation at 0.5 times MIC by crystal violet staining based assay; type: functional; parameters: scale not given: the % may be the effect or the level left
# [18] = Toxicity in mouse assessed as change in body weight at 10 mg/kg, sc administered every 12 hrs for 4 days; type: organism-based; settings: in vivo, 96 h, time 4 day
# Cell membrane [19] = test: Induction of inner membrane permeabilization in Staphylococcus aureus USA300 assessed as increase in fluorescence intensity at 2 times MIC incubated for 40 mins by SYTOX staining based analysis; type: cell membranes
# Staphylococcus aureus [20] = test: Synergistic antibacterial activity against Methicillin-resistant Staphylococcus aureus USA300 infected in mouse skin infection model assessed as reduction in number of bacteria at 10 mg/kg, sc in presence of oxacillin administered every 12 hrs for 3 days; type: functional; settings: time 3 day
# Staphylococcus aureus [21] = test: Induction of resistance development in methicillin resistant Staphylococcus aureus USA300 assessed as fold increase in MIC measured upto 65 days; type: functional; settings: time <= 65.0 day
# Staphylococcus aureus [22] = test: Synergistic antibacterial activity against Methicillin-resistant Staphylococcus aureus USA300 assessed as fractional inhibitory concentration index in presence of oxacillin by checkboard method; type: functional
# Staphylococcus aureus [23] = test: Induction of resistance development in methicillin resistant Staphylococcus aureus USA300 at 25 to 150 microg/ml measured upto 65 days; type: functional; settings: dose 25-150 µg/ml, time <= 65.0 day
# Cell membrane [24] = test: Induction of inner membrane permeabilization in Staphylococcus aureus USA300 assessed as increase in fluorescence intensity at 1 times MIC incubated for 90 mins by SYTOX staining based analysis
# Cell membrane [25] = test: Induction of cell membrane damage in Staphylococcus aureus USA300 assessed as increase in red fluorescence intensity at 2 times MIC by confocal laser scanning microscopic analysis; type: cell membranes
# Staphylococcus aureus [26] = test: Additive antibacterial activity against Methicillin-resistant Staphylococcus aureus USA300 assessed as doxycycline MIC incubated for 24 hrs by checkboard method(reference value: 0.125 microg/ml); type: functional
# Staphylococcus aureus [27] = test: Antibiofilm activity against Methicillin-resistant Staphylococcus aureus USA300 assessed as biofilm eradication at 16 times MIC by crystal violet staining based assay; type: functional
# Staphylococcus aureus [28] = test: Antibacterial activity against Methicillin-resistant Staphylococcus aureus USA300 assessed as decrease in number of colonies at 0.5 times MIC incubated for 2 to 5 hrs by time-kill kinetics assay; type: functional, organism-based; settings: time 2-5 hrs
# Cell membrane [29] = test: Induction of cell membrane damage in Staphylococcus aureus USA300 assessed as nucleic acid leakage at 1 to 2 times MIC by confocal laser scanning microscopic analysis; type: cell membranes
# Staphylococcus aureus [30] = test: Synergistic antibacterial activity against Methicillin-resistant Staphylococcus aureus USA300 assessed as fractional inhibitory concentration index in presence of amoxicillin by checkboard method; type: functional
# Staphylococcus aureus [31] = test: Additive antibacterial activity against Methicillin-resistant Staphylococcus aureus USA300 assessed as fractional inhibitory concentration index in presence of doxycycline by checkboard method; type: functional
# Cell membrane [32] = test: Induction of cell membrane damage in Staphylococcus aureus USA300 assessed as nucleic acid leakage at 4 to 8 times MIC measured for 3 hrs by confocal laser scanning microscopic analysis; type: cell membranes
# Staphylococcus aureus [33] = test: Inhibition of staphyloxanthin biosynthesis in Methicillin-resistant Staphylococcus aureus ATCC 3392 assessed as reduction in 4,4-Diapophytoene formation at 0.125 to 0.625 times MIC by nanodrop spectrophotometer analysis; type: functional, organism-based
# Staphylococcus aureus [34] = test: Induction of morphological changes in Staphylococcus aureus USA300 assessed as appearance of broken cell surface at 2 to 4 times MIC by SEM analysis; type: functional, organism-based
# Staphylococcus aureus [35] = test: Antibacterial activity against Methicillin-resistant Staphylococcus aureus USA300 assessed as decrease in number of colonies incubated for 0.5 hrs by time-kill kinetics assay; type: functional, organism-based
# Staphylococcus aureus [36] = test: Antibacterial activity against Methicillin-resistant Staphylococcus aureus USA300 assessed as decrease in number of colonies at 1 to 4 times MIC incubated upto 8 hrs by time-kill kinetics assay; type: functional, organism-based
# Staphylococcus aureus [37] = test: Inhibition of staphyloxanthin biosynthesis in Methicillin-resistant Staphylococcus aureus ATCC 3392 assessed as reduction in 4,4-Diaponeurosporene formation at 0.125 to 0.625 times MIC by nanodrop spectrophotometer analysis; type: functional, organism-based
# Staphylococcus aureus [38] = test: Synergistic antibacterial activity against Methicillin-resistant Staphylococcus aureus USA300 assessed as oxacillin MIC incubated for 24 hrs by checkboard method (reference value: 2 microg/ml); type: functional
# Cell membrane [39] = test: Induction of cell membrane damage in Staphylococcus aureus USA300 assessed as intracellular ATP leakage at 16 times MIC by confocal laser scanning microscopic analysis; type: cell membranes
# Staphylococcus aureus [40] = test: Antibiofilm activity against Methicillin-resistant Staphylococcus aureus USA300 assessed as inhibition of biofilm formation at 0.25 times MIC by crystal violet staining based assay; type: functional; parameters: scale not given: the % may be the effect or the level left
# Staphylococcus aureus [41] = test: Inhibition of staphyloxanthin biosynthesis in Methicillin-resistant Staphylococcus aureus ATCC 3392 assessed as reduction in 4,4-diaponeurosporenic acid formation at 0.125 to 0.625 times MIC by nanodrop spectrophotometer analysis; type: functional, organism-based
structure (smiles),measurement,setting,value
CCCCC(=O)c1c(O)cc(O)c(C(=O)C2CCCCC2)c1O,MIC,Escherichia coli,> 64 µg/mL
same,MIC,Staphylococcus aureus [1],0.5 µg/mL
same,Selectivity Index,Staphylococcus aureus [2],8
same,MBC,Staphylococcus aureus [3],4 µg/mL
same,Selectivity Index,Staphylococcus aureus [4],2
same,viability at 24 h,[5],76%
same,MIC,Staphylococcus aureus [6],0.5 µg/mL
same,viability at 24 h,[7],75%
same,MIC,Klebsiella pneumoniae,> 64 µg/mL
same,MIC,Staphylococcus aureus [8],0.5 µg/mL
same,MIC,Pseudomonas aeruginosa,> 64 µg/mL
same,MBC,Staphylococcus aureus [9],1 µg/mL
CN[C@H](CC(C)C)C(=O)N[C@H]1C(=O)N[C@@H](CC(N)=O)C(=O)N[C@H]2C(=O)N[C@H]3C(=O)N[C@H](C(=O)N[C@H](C(=O)O)c4cc(O)cc(O)c4-c4cc3ccc4O)[C@H](O)c3ccc(c(Cl)c3)Oc3cc2cc(c3O[C@@H]2O[C@H](CO)[C@@H](O)[C@H](O)[C@H]2O[C@H]2C[C@](C)(N)[C@H](O)[C@H](C)O2)Oc2ccc(cc2Cl)[C@H]1O [VANCOMYCIN],MIC,Escherichia coli,> 64 µg/mL
same,Activity,Staphylococcus aureus [10]; time 3.0 day,inactive
same,MIC,Klebsiella pneumoniae,> 64 µg/mL
same,MIC,Pseudomonas aeruginosa,> 64 µg/mL
CCCCCCC(=O)c1c(O)cc(O)c(C(=O)CCCCCC)c1O,MIC,Staphylococcus aureus [11],0.125 µg/mL
same,Activity,Cell membrane [12],Active
same,MIC,Escherichia coli,> 64 µg/mL
same,Activity,Cell membrane [13],Dose-Dependent Effect
same,Activity,Staphylococcus aureus [14],Active
same,MIC,Staphylococcus aureus [1],0.5 µg/mL
same,Activity,Staphylococcus aureus [15],~50%
same,inhibition,Staphylococcus aureus [16],Active
same,Selectivity Index,Staphylococcus aureus [2],1
same,Activity,Staphylococcus aureus [17],95%
same,MBC,Staphylococcus aureus [3],1 µg/mL
same,Activity,[18],Non-Toxic
same,Activity,Cell membrane [19],Active
same,Activity,Staphylococcus aureus [20],2.5 log10CFU/g
same,fold change (FC),Staphylococcus aureus [21],256
same,viability at 24 h,[5],76%
same,MIC,Staphylococcus aureus [6],0.5 µg/mL
same,fractional inhibitory concentration index (FICI),Staphylococcus aureus [22],0.375
same,Activity,Staphylococcus aureus [23],Active
same,Activity,Cell membrane [24],Active
same,Activity,Cell membrane [25],Active
same,viability at 24 h,[7],75%
same,MIC,Staphylococcus aureus [26],0.25 µg/mL
same,Activity,Staphylococcus aureus [27],37%
same,Activity,Staphylococcus aureus [10]; time 3 day,1.5 log10CFU/g
same,Activity,Staphylococcus aureus [28],Active
same,Activity,Cell membrane [29],inactive
same,MIC,Klebsiella pneumoniae,> 64 µg/mL
same,fractional inhibitory concentration index (FICI),Staphylococcus aureus [30],0.312
same,fractional inhibitory concentration index (FICI),Staphylococcus aureus [31],0.75
same,Activity,Cell membrane [32],Active
same,MIC,Staphylococcus aureus [8],1 µg/mL
same,MIC,Pseudomonas aeruginosa,> 64 µg/mL
same,inhibition,Staphylococcus aureus [33],inactive
same,Activity,Staphylococcus aureus [34],Active
same,Activity,Staphylococcus aureus [35],Dose-Dependent Effect
same,Activity,Staphylococcus aureus [36],Active
same,inhibition,Staphylococcus aureus [37],Active
same,MIC,Staphylococcus aureus [38],0.125 µg/mL
same,Activity,Cell membrane [39],70%
same,MBC,Staphylococcus aureus [9],1 µg/mL
same,Activity,Staphylococcus aureus [40],58%
same,inhibition,Staphylococcus aureus [41],Active
CCCCC(=O)c1c(O)cc(O)c(C(=O)CCC(C)C)c1O,MIC,Escherichia coli,> 64 µg/mL
same,MIC,Staphylococcus aureus [1],0.5 µg/mL
same,Selectivity Index,Staphylococcus aureus [2],16
same,MBC,Staphylococcus aureus [3],8 µg/mL
same,Selectivity Index,Staphylococcus aureus [4],4
same,viability at 24 h,[5],76%
same,MIC,Staphylococcus aureus [6],0.5 µg/mL
same,viability at 24 h,[7],75%
same,MIC,Klebsiella pneumoniae,> 64 µg/mL
same,MIC,Staphylococcus aureus [8],0.5 µg/mL
same,MIC,Pseudomonas aeruginosa,> 64 µg/mL
same,MBC,Staphylococcus aureus [9],2 µg/mL
